Starred links: 1 amine or outer side, 2 acyl side, 3 side chain; linkers in the order of their positions; H or OH if unused. Non-standard residues stand in square brackets, D forms with d. Residues, ends and D or L forms follow the SMILES beside them. *: point of attachment. X2 = CCCCCCCCCCCCCCCCOC(=O)CC[C@H](N*)C(=O)OCCCCCCCCCCCCCCCC; X1 = CCCCCCCCCCCCCCOC(=O)CC[C@H](N*)C(=O)OCCCCCCCCCCCCCC; X3 = CCCCCCCCCCCCOC(=O)CC[C@H](N*)C(=O)OCCCCCCCCCCCC; Hyp = O=C(O)[C@@H]1C[C@@H](O)CN1; Suc = O=C(CCC(=O)[*:2])[*:1]
How the values were obtained:
[1] = Surface pressure-area isotherms of monolayers at the air-water interface; format: physicochemical; settings: for limiting surface area (monolayer reaches maximum surface pressure and collapses): 22° C., pure water subphase
Procedure: All isotherms were obtained at 22° C. after spreading a peptide amphiphile solution in hexane-CHCl3 -methanol (5:4:1) over a pure water subphase. After 15 minutes, the monolayer was compressed laterally with constant speed for 10 mm/minute on a computerized KSV LB5000 Langmuir-Blodgett instrument and surface pressure detected using film balance with a platinum Wilhemy plate.

[2] = Circular dichroism spectroscopy; format: physicochemical; settings: 25° C., 0.5 mM in H2O, λ=225 nm
Procedure: Spectra were recorded on a JASCO J-710 spectropolarimeter using a thermostated 0.1 mm quartz cell. Thermal transition curves were obtained by recording the molar ellipticity ([θ]) in the range of 10-80° C. at λ=225 nm. The peptide and peptide-amphiphile concentrations were 0.5 mM in H2 O at 25° C.

[3] = tested on: melanoma cell; settings: cited from earlier work

limiting surface area (monolayer reaches maximum surface pressure and collapses) [1] | CD spectrum, positive ellipticity (poly-Pro II / triple-helix-like structure) [2] | surface activity / formation of monolayers at the air-water interface [1] | Structure (SMILES) | melanoma cell adhesion and spreading [3]
0.6 nm^2 /molecule | – | – | CCCCCCCCCCCCCCOC(=O)CC[C@H](NC(=O)CCC(=O)NCC(=O)N[C@H](C(=O)N[C@@H](CCCCN)C(=O)NCC(=O)N[C@@H](CC(=O)O)C(=O)N[C@@H](CCCCN)C(=O)NCC(=O)N[C@@H](CC(N)=O)C(=O)N1CCC[C@H]1C(=O)NCC(=O)N[C@@H](Cc1c[nH]c2ccccc12)C(=O)N1CCC[C@H]1C(=O)NCC(=O)N[C@@H](C)C(=O)N1CCC[C@H]1C(=O)NCC(=O)N1CCC[C@H]1C(=O)N1C[C@H](O)C[C@H]1C(=O)NCC(=O)N1CCC[C@H]1C(=O)N1C[C@H](O)C[C@H]1C(=O)NCC(=O)N1CCC[C@H]1C(=O)N1C[C@H](O)C[C@H]1C(=O)NCC(=O)N1CCC[C@H]1C(=O)N1C[C@H](O)C[C@H]1C(N)=O)C(C)C)C(=O)OCCCCCCCCCCCCCC [(C14)2 -Glu-C2 -[IV-H1]-(Gly-Pro-Hyp)4] ({X1-Suc}-GVKGDKGNPGWPGAPGP[Hyp]GP[Hyp]GP[Hyp]GP[Hyp]-NH2) | –
– | no positive ellipticity | – | CCCCCCCCCCCCOC(=O)CC[C@H](NC(=O)CCC(=O)NCC(=O)N[C@H](C(=O)N[C@@H](CCCCN)C(=O)NCC(=O)N[C@@H](CC(=O)O)C(=O)N[C@@H](CCCCN)C(=O)NCC(=O)N[C@@H](CC(N)=O)C(=O)N1CCC[C@H]1C(=O)NCC(=O)N[C@@H](Cc1c[nH]c2ccccc12)C(=O)N1CCC[C@H]1C(=O)NCC(=O)N[C@@H](C)C(=O)N1CCC[C@H]1C(N)=O)C(C)C)C(=O)OCCCCCCCCCCCC [(C12)2 -Glu-C2-[IV-H1]] ({X3-Suc}-GVKGDKGNPGWPGAP-NH2) | –
0.6 nm^2 /molecule | – | – | CCCCCCCCCCCCCCCCOC(=O)CC[C@H](NC(=O)CCC(=O)NCC(=O)N1CCC[C@H]1C(=O)N1C[C@H](O)C[C@H]1C(=O)NCC(=O)N1CCC[C@H]1C(=O)N1C[C@H](O)C[C@H]1C(=O)NCC(=O)N1CCC[C@H]1C(=O)N1C[C@H](O)C[C@H]1C(=O)NCC(=O)N1CCC[C@H]1C(=O)N1C[C@H](O)C[C@H]1C(=O)NCC(=O)N[C@H](C(=O)N[C@@H](CCCCN)C(=O)NCC(=O)N[C@@H](CC(=O)O)C(=O)N[C@@H](CCCCN)C(=O)NCC(=O)N[C@@H](CC(N)=O)C(=O)N1CCC[C@H]1C(=O)NCC(=O)N[C@@H](Cc1c[nH]c2ccccc12)C(=O)N1CCC[C@H]1C(=O)NCC(=O)N[C@@H](C)C(=O)N1CCC[C@H]1C(N)=O)C(C)C)C(=O)OCCCCCCCCCCCCCCCC [(C16)2 -Glu-C2 -(Gly-Pro-Hyp)4 -[IV-H1]] ({X2-Suc}-GP[Hyp]GP[Hyp]GP[Hyp]GP[Hyp]GVKGDKGNPGWPGAP-NH2) | –
– | did not show any positive ellipticity | not surface active | CC(C)[C@H](NC(=O)CN)C(=O)N[C@@H](CCCCN)C(=O)NCC(=O)N[C@@H](CC(=O)O)C(=O)N[C@@H](CCCCN)C(=O)NCC(=O)N[C@@H](CC(N)=O)C(=O)N1CCC[C@H]1C(=O)NCC(=O)N[C@@H](Cc1c[nH]c2ccccc12)C(=O)N1CCC[C@H]1C(=O)NCC(=O)N[C@@H](C)C(=O)N1CCC[C@H]1C(N)=O [[IV-H1]] (H-GVKGDKGNPGWPGAP-NH2) | promote melanoma cell adhesion and spreading

— US6096863A, “Self-assembling amphiphiles for construction of peptide secondary structures” (Regents of the University of Minnesota, priority 1996, dated 2000)
